According to PubChem BioAssay (NCI):
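A five-concentration, 48-hour dose response in 96-well plates underlies each endpoint, interpolated linearly between surrounding concentrations. TGI: total growth inhibition.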

Tests used:
Test in all cases: inhibition of tumour cell growth, NCI panel, 48 h
[1] = tested on: 786-0 renal
[2] = tested on: A498 renal
[3] = tested on: A549 NSCLC
[4] = tested on: ACHN renal
[5] = tested on: BT-549 breast
[6] = tested on: CCRF-CEM leukemia
[7] = tested on: COLO 205 colon
[8] = tested on: DU-145 prostate
[9] = tested on: EKVX NSCLC
[10] = tested on: HCT-116 colon
[11] = tested on: HCT-15 colon
[12] = tested on: HL-60(TB) leukemia
[13] = tested on: HOP-62 NSCLC
[14] = tested on: HOP-92 NSCLC
[15] = tested on: HS 578T breast
[16] = tested on: HT29 colon
[17] = tested on: IGROV1 ovarian
[18] = tested on: K-562 leukemia
[19] = tested on: KM12 colon
[20] = tested on: LOX IMVI melanoma
[21] = tested on: M14 melanoma
[22] = tested on: MALME-3M melanoma
[23] = tested on: MCF7 breast
[24] = tested on: MDA-MB-231 breast
[25] = tested on: MDA-MB-435
[26] = tested on: MDA-N
[27] = tested on: MOLT-4 leukemia
[28] = tested on: NCI-H226 lung
[29] = tested on: NCI-H23 lung
[30] = tested on: NCI-H460 lung
[31] = tested on: NCI-H522 lung
[32] = tested on: NCI/ADR-RES ovarian
[33] = tested on: OVCAR-3 ovarian
[34] = tested on: OVCAR-4 ovarian
[35] = tested on: OVCAR-5 ovarian
[36] = tested on: OVCAR-8 ovarian
[37] = tested on: PC-3 prostate
[38] = tested on: RPMI-8226 leukemia
[39] = tested on: RXF 393 renal
[40] = tested on: SF-268 CNS
[41] = tested on: SF-295 CNS
[42] = tested on: SF-539 CNS
[43] = tested on: SK-MEL-2 melanoma
[44] = tested on: SK-MEL-28 melanoma
[45] = tested on: SK-MEL-5 melanoma
[46] = tested on: SK-OV-3 ovarian
[47] = tested on: SN12C renal
[48] = tested on: SNB-19 CNS
[49] = tested on: SNB-75 CNS
[50] = tested on: SR leukemia
[51] = tested on: SW-620 colon
[52] = tested on: T-47D breast
[53] = tested on: TK-10 renal
[54] = tested on: U251 CNS
[55] = tested on: UACC-257 melanoma
[56] = tested on: UACC-62 melanoma
[57] = tested on: UO-31 renal
[58] = tested on: CAKI-1 renal
[59] = tested on: HCC-2998 colon

Measured: TGI

Cc1cn(CCC(N)C(=O)O)c(=O)[nH]c1=O (stereo not given)
> 100 µM: [1] | [2] | [3] | [4] | [5] | [6] | [7] | [8] | [9] | [10] | [11] | [12] | [13] | [14] | [15] | [16] | [17] | [18] | [19] | [20] | [21] | [22] | [23] | [24] | [25] | [26] | [27] | [28] | [29] | [30] | [31] | [32] | [33] | [34] | [35] | [36] | [37] | [38] | [39] | [40] | [41] | [42] | [43] | [44] | [45] | [46] | [47] | [48] | [49] | [50] | [51] | [52] | [53] | [54] | [55] | [56] | [57]

NC(=S)Nc1ccc2c(c1)oc1ccccc12
> 100 µM: [1] | [2] | [3] | [4] | [5] | [58] | [6] | [7] | [8] | [9] | [59] | [10] | [11] | [12] | [13] | [14] | [15] | [16] | [17] | [18] | [19] | [20] | [21] | [22] | [23] | [24] | [25] | [26] | [27] | [28] | [29] | [30] | [31] | [32] | [33] | [34] | [35] | [36] | [37] | [38] | [39] | [40] | [41] | [43] | [44] | [45] | [46] | [47] | [48] | [49] | [50] | [51] | [52] | [53] | [54] | [55] | [56] | [57]
